# Results published in patent US10308667B2, “Oxadiazolopyridine derivatives for use as ghrelin O-acyl transferase (GOAT) inhibitors” (Boehringer Ingelheim International GmbH, priority 2016, dated 2019).
# Target: human GOAT (Homo sapiens (Human), UniProt Q96T53)
# Assay: Determination of hGOAT Activity in HEK293 Cells after Incubation with Test Compound
# Type: cell-based
# Settings: HEK293 cells stably transfected with preproghrelin and human GOAT; octanoate-BSA 100 μM; acyl-ghrelin in medium by ELISA after 5 hours
# Procedure, shortened: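 HEK293 cells stably expressing preproghrelin and human GOAT were given serum-free medium with 100 μM octanoate-BSA plus compound (0.3% DMSO) for 5 h. Acyl-ghrelin in the medium was quantified by ELISA (A405, standard curve) as % of vehicle. IC50 was fitted from 8 concentrations.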
# human GOAT, sequence (Q96T53 whole entry): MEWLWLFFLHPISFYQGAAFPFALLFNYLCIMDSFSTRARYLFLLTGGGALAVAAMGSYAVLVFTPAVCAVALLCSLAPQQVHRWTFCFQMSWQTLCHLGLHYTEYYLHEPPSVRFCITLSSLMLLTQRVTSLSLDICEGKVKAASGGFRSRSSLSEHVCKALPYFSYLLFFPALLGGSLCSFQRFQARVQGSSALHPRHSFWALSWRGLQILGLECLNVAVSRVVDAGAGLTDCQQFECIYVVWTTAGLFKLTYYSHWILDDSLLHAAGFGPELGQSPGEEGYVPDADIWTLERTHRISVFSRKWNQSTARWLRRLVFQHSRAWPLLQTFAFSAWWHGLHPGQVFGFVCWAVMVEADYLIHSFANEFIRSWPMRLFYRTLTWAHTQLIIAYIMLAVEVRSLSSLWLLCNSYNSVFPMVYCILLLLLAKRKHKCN
row,IC50 [nM],Structure (SMILES)
1,0.091,"Cc1nc2nonc2c(N)c1Cc1ccc(OC(F)F)c(N)n1 [Example 119, 6-(6-Amino-5-difluoromethoxy-pyridin-2-ylmethyl)-5-methyl-[1,2,5]oxadiazolo[3,4-b]pyridin-7-ylamine]"
2,4.3,"Cc1nc2nonc2c(N)c1Cc1ccc(OC(F)F)c(=O)[nH]1 [Example 120, 6-(7-Amino-5-methyl-[1,2,5]oxadiazolo[3,4-b]pyridin-6-ylmethyl)-3-difluoromethoxy-1H-pyridin-2-one]"
3,0.045,"Cc1nc2nonc2c(N)c1Cc1ccc(Br)c(NCC2(C)COC2)n1 [Example 121, 6-{5-Bromo-6-[(3-methyl-oxetan-3-ylmethyl)-amino]-pyridin-2-ylmethyl}-5-methyl-[1,2,5]oxadiazolo[3,4-b]pyridin-7-ylamine]"
4,0.033,"Cc1nc2nonc2c(N)c1Cc1ccc(Br)c(N2CC(C)(O)C2)n1 [Example 122, 1-[6-(7-Amino-5-methyl-[1,2,5]oxadiazolo[3,4-b]pyridin-6-ylmethyl)-3-bromo-pyridin-2-yl]-3-methyl-azetidin-3-ol]"
5,0.026,"Cc1nc2nonc2c(N)c1Cc1ccc(Br)c(N2CCOCC2)n1 [Example 123, 6-(5-Bromo-6-morpholin-4-yl-pyridin-2-ylmethyl)-5-methyl-[1,2,5]oxadiazolo[3,4-b]pyridin-7-ylamine]"
6,0.056,"Cc1nc2nonc2c(N)c1Cc1ccc(Br)c(NCC(C)(C)C(N)=O)n1 [Example 124, 3-[6-(7-Amino-5-methyl-[1,2,5]oxadiazolo[3,4-b]pyridin-6-ylmethyl)-3-bromo-pyridin-2-ylamino]-2,2-di methyl-propionamide]"
7,0.038,"Cc1nc2nonc2c(N)c1Cc1ccc(Br)c(NC2CC2)n1 [Example 125, 6-(5-Bromo-6-cyclopropylamino-pyridin-2-ylmethyl)-5-methyl-[1,2,5]oxadiazolo[3,4-b]pyridin-7-ylamine]"
8,0.17,"Cc1nc2nonc2c(N)c1Cc1ccc(Br)c(NCC2(C)CCOC2)n1 (stereo not drawn) [Example 126, 6-{5-Bromo-6-[(3-methyl-tetrahydro-furan-3-ylmethyl)-amino]-pyridin-2-ylmethyl}-5-methyl-[1,2,5]oxadiazolo[3,4-b]pyridin-7-ylamine]"
9,0.1,"Cc1nc2nonc2c(N)c1Cc1ccc(Br)c(NCC(C)(C)C#N)n1 [Example 127, 3-[6-(7-Amino-5-methyl-[1,2,5]oxadiazolo[3,4-b]pyridin-6-ylmethyl)-3-bromo-pyridin-2-ylamino]-2,2-di methyl-propionitrile]"

# Second part, the compound before the results:
row,Structure (SMILES),IC50 [nM]
1,"Cc1nc2nonc2c(N)c1Cc1ccc(Br)c(OCCCF)n1 [Example 101, 6-[5-Bromo-6-(3-fluoro-propoxy)-pyridin-2-ylmethyl]-5-methyl-[1,2,5]oxadiazolo[3,4-b]pyridin-7-ylamine]",0.074
2,"CSc1nc(Cc2c(C)nc3nonc3c2N)ccc1Br [Example 102, 6-(5-Bromo-6-methylsulfanyl-pyridin-2-ylmethyl)-5-methyl-[1,2,5]oxadiazolo[3,4-b]pyridin-7-ylamine]",0.074
3,"Cc1nc2nonc2c(N)c1Cc1ccc(C#N)c(OCC(C)(F)F)n1 [Example 103, 6-(7-Amino-5-methyl-[1,2,5]oxadiazolo[3,4-b]pyridin-6-ylmethyl)-2-(2,2-difluoro-propoxy)-nicotinonitrile]",0.086
4,"Cc1nc2nonc2c(N)c1Cc1ccc(C#N)c(OC2COC2)n1 [Example 104, 6-(7-Amino-5-methyl-[1,2,5]oxadiazolo[3,4-b]pyridin-6-ylmethyl)-2-(oxetan-3-yloxy)-nicotinonitrile]",0.98
5,"Cc1nc2nonc2c(N)c1Cc1ccc(C#N)c(OCC(C)(C)O)n1 [Example 105, 6-(7-Amino-5-methyl-[1,2,5]oxadiazolo[3,4-b]pyridin-6-ylmethyl)-2-(2-hydroxy-2-methyl-propoxy)-nicotinonitrile]",0.12
6,"Cc1nc2nonc2c(N)c1Cc1ccc(C#N)c(OCCF)n1 [Example 106, 6-(7-Amino-5-methyl-[1,2,5]oxadiazolo[3,4-b]pyridin-6-ylmethyl)-2-(2-fluoro-ethoxy)-nicotinonitrile]",0.11
7,"Cc1nc2nonc2c(N)c1Cc1ccc(C#N)c(OCC(F)(F)F)n1 [Example 107, 6-(7-Amino-5-methyl-[1,2,5]oxadiazolo[3,4-b]pyridin-6-ylmethyl)-2-(2,2,2-trifluoro-ethoxy)-nicotinonitrile]",0.33
8,"Cc1nc2nonc2c(N)c1Cc1ccc(C#N)c(OCCCF)n1 [Example 108, 6-(7-Amino-5-methyl-[1,2,5]oxadiazolo[3,4-b]pyridin-6-ylmethyl)-2-(3-fluoro-propoxy)-nicotinonitrile]",0.026
9,"Cc1nc2nonc2c(N)c1Cc1ccc(C#N)c(OCC(F)F)n1 [Example 109, 6-(7-Amino-5-methyl-[1,2,5]oxadiazolo[3,4-b]pyridin-6-ylmethyl)-2-(2,2-difluoro-ethoxy)-nicotinonitrile]",0.093
10,"Cc1nc2nonc2c(N)c1Cc1ccc(C#N)c(OCCC(F)(F)F)n1 [Example 110, 6-(7-Amino-5-methyl-[1,2,5]oxadiazolo[3,4-b]pyridin-6-ylmethyl)-2-(3,3,3-trifluoro-propoxy)-nicotinonitrile]",0.28
11,"Cc1nc2nonc2c(N)c1Cc1ccc(C#N)c(OCC2(C)COC2)n1 [Example 111, 6-(7-Amino-5-methyl-[1,2,5]oxadiazolo[3,4-b]pyridin-6-ylmethyl)-2-(3-methyl-oxetan-3-ylmethoxy)-nicotinonitrile]",0.1
12,"Cc1nc2nonc2c(N)c1Cc1ccc(C#N)c(OCC2CC2(F)F)n1 (stereo not drawn) [Example 112, 6-(7-Amino-5-methyl-[1,2,5]oxadiazolo[3,4-b]pyridin-6-ylmethyl)-2-(2,2-difluoro-cyclopropylmethoxy)-nicotinonitrile]",0.22
13,"Cc1nc2nonc2c(N)c1Cc1ccc(C#N)c(=O)[nH]1 [Example 113, 6-(7-Amino-5-methyl-[1,2,5]oxadiazolo[3,4-b]pyridin-6-ylmethyl)-2-oxo-1,2-dihydro-pyridine-3-carbonitrile]",31
14,"Cc1nc2nonc2c(N)c1Cc1ccc(OCC(F)(F)F)c(C#N)n1 [Example 114, 6-(7-Amino-5-methyl-[1,2,5]oxadiazolo[3,4-b]pyridin-6-ylmethyl)-3-(2,2,2-trifluoro-ethoxy)-pyridine-2-carbonitrile]",3.9
15,"Cc1nc2nonc2c(N)c1Cc1ccc(OCCF)c(C#N)n1 [Example 115, 6-(7-Amino-5-methyl-[1,2,5]oxadiazolo[3,4-b]pyridin-6-ylmethyl)-3-(2-fluoro-ethoxy)-pyridine-2-carbonitrile]",1.2
16,"Cc1nc2nonc2c(N)c1Cc1ccc(OCC(F)F)c(C#N)n1 [Example 116, 6-(7-Amino-5-methyl-[1,2,5]oxadiazolo[3,4-b]pyridin-6-ylmethyl)-3-(2,2-difluoro-ethoxy)-pyridine-2-carbonitrile]",0.83
17,"Cc1nc2nonc2c(N)c1Cc1ccc(Oc2ccnn2C)c(C#N)n1 [Example 117, 6-(7-Amino-5-methyl-[1,2,5]oxadiazolo[3,4-b]pyridin-6-ylmethyl)-3-(2-methyl-2H-pyrazol-3-yloxy)-pyridine-2-carbonitrile]",0.19
18,"Cc1nc2nonc2c(N)c1Cc1ccc(Oc2ccccc2)c(C#N)n1 [Example 118, 6-(7-Amino-5-methyl-[1,2,5]oxadiazolo[3,4-b]pyridin-6-ylmethyl)-3-phenoxy-pyridine-2-carbonitrile]",0.085
